# Test results taken from US20080247987A1, “Block Copolymer Compositions and Uses Thereof” (ANGIOTECH INTERNATIONAL AG, priority 2005, published 2008).
# Read-outs that look alike come from different tables or passages of the source.
# Legend:
# [1] = tested on: prostate cancer; conditions: in vitro; cited from earlier work
# [2] = tested on: prostate cancer; conditions: in vivo; cited from earlier work
# [3] = cited from earlier work
# [4] = tested on: prostate tumors; conditions: via inhibition of angiogenesis; cited from earlier work
# [5] = tested on: carrageenin-induced arthritis; experiment: Inflammatory carrageenin-induced arthritis model; assay type: in vivo; conditions: rabbits
# [6] = tested on: arthritis after anterior cruciate ligament transection; experiment: Surgical transection of the anterior cruciate ligament (mechanical arthritis model); assay type: in vivo, Hartley Guinea pigs; conditions: introduced into the joint
# From the text: Hartley Guinea pigs subjected to surgical transaction of the anterior cruciate ligament represent a mechanical model for arthritis. Typically after the anterior cruciate is severed, the animals develop arthritis within several weeks.
# [7] = tested on: neutrophil; conditions: cited from earlier work
# [8] = tested on: T-cell; conditions: cited from earlier work
# [9] = tested on: synoviocytes; conditions: cited from earlier work
# [10] = tested on: AP-1; conditions: via reduced AP-1 binding to DNA; cited from earlier work
# [11] = tested on: collagen induced arthritis; conditions: animal model; cited from earlier work
# [12] = tested on: normal chondrocytes and non-proliferating synoviocytes; conditions: cited from earlier work
# [13] = tested on: human prostate cancer cell; conditions: in vitro; cited from earlier work
# [14] = tested on: angiogenesis; conditions: cited from earlier work
# [15] = tested on: advanced breast, ovarian and non-small cell lung cancer; conditions: in vivo; cited from earlier work
# [16] = physchem; conditions: organic solvent or mixture, thermodynamic from solid
# Protocol: The phase separation of the PEG400-TMC/Gly(90/10)900 triblock copolymer from PEG 300 in the presence of water was evaluated to predict its behavior upon dilution in a largely aqueous physiological environment. […] The phase separation is expected to form a PEG 300-rich phase and a PEG400-TMC/Gly(90/10)900-rich phase, the former containing the highest proportion of water. […] Solubility in the PEG 300-rich phase was estimated from co-solvent studies of water/PEG 300 mixtures.
structure (smiles),measurement,setting,value
C[C@]12CC[C@@H]3c4ccc(OC(=O)N(CCCl)CCCl)cc4CC[C@H]3[C@@H]1CC[C@@H]2O [estramustine],efficacy against prostate cancer,[1],some efficacy against prostate cancer
same,efficacy against prostate cancer,[2],some efficacy against prostate cancer
COc1ccc2c(c1)c(CC(=O)O)c(C)n2C(=O)c1ccc(Cl)cc1 [Indomethacin],solubility in water,[3],practically insoluble in water
CC1=C(/C=C/C(C)=C/C=C/C(C)=C/C(=O)O)C(C)(C)CCC1 [Tretinoin],solubility in water,[3],practically insoluble in water
CN(C(=O)c1c(O)c2ccccc2n(C)c1=O)c1ccccc1 [Linomide],antitumor and antimetastatic effects,[4],both antitumor and antimetastatic effects
O=c1c(-c2ccc(O)cc2)coc2cc(O)cc(O)c12 [Genistein],solubility in water,[3],practically insoluble in water
COc1cc(/C=C/C(=O)CC(=O)/C=C/c2ccc(O)c(OC)c2)ccc1O [Curcumin],solubility in water,[3],practically insoluble in water
O=C1c2c(O)cccc2Cc2cccc(O)c21 [Anthralin],solubility in water,[3],practically insoluble in water
CC(=O)O[C@H]1C(=O)[C@@]2(C)[C@H]([C@H](OC(=O)c3ccccc3)[C@]3(O)C[C@H](OC(=O)[C@H](O)[C@@H](NC(=O)c4ccccc4)c4ccccc4)C(C)=C1C3(C)C)[C@]1(OC(C)=O)CO[C@@H]1C[C@@H]2O [Paclitaxel],effect on cartilage,[5],demonstrated cartilage
same,"effect on arthritic process, cartilage and bone",[6],"greatly retarded the arthritic process and protected not only the cartilage, but also the underlying bone, from breakdown"
same,solubility in water,[3],0.001 to 0.002 mg/mL
same,neutrophil activation,[7],inhibits neutrophil activation
same,T-cell function,[8],inhibits T-cell function
same,T-cell response to stimuli,[8],decreases T-cell response to stimuli
same,apoptosis in synoviocytes,[9],induces apoptosis in synoviocytes
same,proliferation of synoviocytes,[9],prevents the proliferation of
same,AP-1 transcription activity,[10],inhibits AP-1 transcription activity
same,collagen induced arthritis,[11],inhibits collagen induced arthritis
same,toxicity to non-proliferating cells,[12],non-toxic to non-proliferating cells
same,prostate cancer cell growth,[13],inhibit human prostate cancer cell growth in vitro
same,angiogenesis,[14],potent inhibitory effect on angiogenesis
same,efficacy against advanced cancers,[15],"shown efficacy against advanced breast, ovarian and non-small cell lung cancer"
same,solubility,[16],250 mg/mL
CC[C@@]1(O)C(=O)OCc2c1cc1n(c2=O)Cc2cc3ccccc3nc2-1 [Camptothecin],solubility in water,[3],0.001 to 0.002 mg/mL
C[C@@H]1[C@H](O)[C@@H](C)/C=C/C=C/C=C/C=C/C=C/C=C/C=C/[C@H](O[C@@H]2O[C@H](C)[C@@H](O)[C@H](N)[C@@H]2O)C[C@@H]2O[C@](O)(C[C@@H](O)C[C@@H](O)[C@H](O)CC[C@@H](O)C[C@@H](O)CC(=O)O[C@H]1C)C[C@H](O)[C@H]2C(=O)O [Amphotericin],solubility in water,[3]; pH 6 to 7,insoluble in water
CC[C@]1(O)C[C@@H]2CN(CCc3c([nH]c4ccccc34)[C@@](C(=O)OC)(c3cc4c(cc3OC)N(C)[C@H]3[C@@](O)(C(=O)OC)[C@H](OC(C)=O)[C@]5(CC)C=CCN6CC[C@]43[C@@H]65)C2)C1 [vinblastine],efficacy against prostate cancer,[1],some efficacy against prostate cancer
same,efficacy against prostate cancer,[2],some efficacy against prostate cancer
